Measured values published in paper PMC4177084 (Journal of Thyroid Research, 2014).

Tests used:
HTC/C3 cells = test: Antiproliferation assay (WST-8); type: cell-based; settings: Homo sapiens, 72 h; HTC/C3 (ATC), antiproliferative, 3 days
IRAK4 = biological target: T1, IRAK4 (Homo sapiens, UniProt Q9NWZ3); test: Cell free kinase inhibition assay; type: biochemical
T1 construct: purchased Carna Biosciences, Inc. (Kobe, Japan)

HER2 = biological target: T2, HER2 (Homo sapiens, UniProt P04626); test: Cell free kinase inhibition assay; type: biochemical
T2 construct: purchased Carna Biosciences, Inc. (Kobe, Japan)

FAK = biological target: T3, FAK (Homo sapiens, UniProt Q05397); test: Cell free kinase inhibition assay; type: biochemical
T3 construct: purchased Carna Biosciences, Inc. (Kobe, Japan)

FGFR4 = biological target: T4, FGFR4 (Homo sapiens, UniProt P22455); test: Cell free kinase inhibition assay; type: biochemical
T4 construct: purchased Carna Biosciences, Inc. (Kobe, Japan)

SYK = biological target: T5, SYK (Homo sapiens, UniProt P43405); test: Cell free kinase inhibition assay; type: biochemical
T5 construct: purchased Carna Biosciences, Inc. (Kobe, Japan)

GSK3β = biological target: T6, GSK3β (Homo sapiens, UniProt P49841); test: Cell free kinase inhibition assay; type: biochemical
T6 construct: purchased Carna Biosciences, Inc. (Kobe, Japan)

INSR = biological target: T7, INSR (Homo sapiens, UniProt P06213); test: Cell free kinase inhibition assay; type: biochemical
T7 construct: purchased Carna Biosciences, Inc. (Kobe, Japan)

TIE2 = biological target: T8, TIE2 (Homo sapiens, UniProt Q02763); test: Cell free kinase inhibition assay; type: biochemical
T8 construct: purchased Carna Biosciences, Inc. (Kobe, Japan)

MUSK = biological target: T9, MUSK (Homo sapiens, UniProt O15146); test: Cell free kinase inhibition assay; type: biochemical
T9 construct: purchased Carna Biosciences, Inc. (Kobe, Japan)

LCK = biological target: T10, LCK (Homo sapiens, UniProt P06239); test: Cell free kinase inhibition assay; type: biochemical
T10 construct: purchased Carna Biosciences, Inc. (Kobe, Japan)

PDGFRβ = biological target: T11, PDGFRβ (Homo sapiens, UniProt P09619); test: Cell free kinase inhibition assay; type: biochemical
T11 construct: purchased Carna Biosciences, Inc. (Kobe, Japan)

RO82-W-1 cells = test: Antiproliferation assay (WST-8); type: cell-based, human; settings: Homo sapiens, 72 h; RO82-W-1 (DTC), antiproliferative, 3 days
IKKb = biological target: T12, IKKb (Homo sapiens, UniProt O14920); test: Cell free kinase inhibition assay; type: biochemical
T12 construct: purchased Carna Biosciences, Inc. (Kobe, Japan)

[1] = system: tumor microvessels in 5 ATC xenografts; test: Microvessel density (CD31 immunohistochemistry) in xenografts; type: in vivo, nude mice; settings: all 5 ATC xenograft models, 10 and 100 mg/kg
From the text: (§1) Tumor tissues were resected from nude mice, embedded in Optimal Cutting Temperature (OCT) compound (Sakura Finetek Japan, Tokyo, Japan), frozen in dry ice-acetone, and then sectioned (8 μm), or they were embedded in paraffin, fixed overnight in immunohistochemical (IHC) Zinc Fixative (BD Biosciences), and then sectioned (6 μm). Tumor microvessels were stained by the indirect immunoperoxidase method with a rat anti-mouse CD31 monoclonal antibody (clone MEC13.3, BD Biosciences) and then visualized by using Vectastain ABC (Dako, Tokyo, Japan). Pericyte was stained by the indirect alkaline phosphatase method with an anti-α smooth muscle actin (SMA) antibody conjugated alkaline phosphatase (A 5691, Sigma-Aldrich) and visualized by using Simple Stain AP(R) (Nichirei Biosciences Inc, Tokyo, Japan). Adjacent sections were stained with Hematoxylin-Eosin. Microvessel density (MVD) was determined as described previously. Each section was scanned by using a microscope (VANOX AHBS3, Olympus, Tokyo, Japan) at low magnification to identify 5 areas with the highest densities of CD31-stained microvessels. The microvessels in the selected areas were then counted at 400x magnification. MVD was recorded as the number of microvessels per mm^2. In the DTC xenografts, the percentage of pericyte-covered microvessels was analyzed. Pericyte-covered vessels were identified by examining the colocalization of CD31- (endothelial cells-) positive vessels and αSMA- (pericytes-) positive cells. The number of pericyte-covered vessels was counted in the selected area and then compared with the total number of CD31-stained microvessels in the same area. The percentage of pericyte-covered microvessels was calculated as the number of pericyte-covered microvessels/total number of microvessels × 100 in the selected area. The MVD in the ATC xenograft models was determined by using the digital pathology system ScanScope XT (Aperio, Vista, CA). Briefly, CD31-stained whole tissue slices were scanned on the ScanScope system (Aperio) to generate high-resolution digital slides. By using a digital slide viewer, Aperio ImageScope (v10.0.36.1805, Aperio), 5 regions of interest (ROIs: each 500 μm square) were manually selected as areas with the highest densities of CD31-stained microvessels in each tumor slice. The number of microvessels in each ROI was measured by using Microvessel Analysis Algorithm v1.0 (Aperio), which automatically detects and quantifies microvessels on slides stained with endothelial markers. MVD was expressed as the number of microvessels per mm^2. […] The percentage of microvessel inhibition (%MVI) was calculated from the microvessel density (MVD) according to the following formula: [(1 − MVD of tumor in each compound-treated animal/Mean MVD of tumors in the vehicle control-treated group) × 100].

[2] = system: tumor microvessels in TT xenografts; test: as above; type: in vivo, nude mice; settings: 10 or 100 mg/kg
From the text: as §1

[3] = system: tumor microvessels in 5 DTC xenografts; test: as above; type: in vivo, nude mice
From the text: as §1

CDK6 = biological target: T13, CDK6 (Homo sapiens, UniProt Q00534); test: Cell free kinase inhibition assay; type: biochemical
T13 construct: purchased Carna Biosciences, Inc. (Kobe, Japan)

T9 sequence (O15146 24-869): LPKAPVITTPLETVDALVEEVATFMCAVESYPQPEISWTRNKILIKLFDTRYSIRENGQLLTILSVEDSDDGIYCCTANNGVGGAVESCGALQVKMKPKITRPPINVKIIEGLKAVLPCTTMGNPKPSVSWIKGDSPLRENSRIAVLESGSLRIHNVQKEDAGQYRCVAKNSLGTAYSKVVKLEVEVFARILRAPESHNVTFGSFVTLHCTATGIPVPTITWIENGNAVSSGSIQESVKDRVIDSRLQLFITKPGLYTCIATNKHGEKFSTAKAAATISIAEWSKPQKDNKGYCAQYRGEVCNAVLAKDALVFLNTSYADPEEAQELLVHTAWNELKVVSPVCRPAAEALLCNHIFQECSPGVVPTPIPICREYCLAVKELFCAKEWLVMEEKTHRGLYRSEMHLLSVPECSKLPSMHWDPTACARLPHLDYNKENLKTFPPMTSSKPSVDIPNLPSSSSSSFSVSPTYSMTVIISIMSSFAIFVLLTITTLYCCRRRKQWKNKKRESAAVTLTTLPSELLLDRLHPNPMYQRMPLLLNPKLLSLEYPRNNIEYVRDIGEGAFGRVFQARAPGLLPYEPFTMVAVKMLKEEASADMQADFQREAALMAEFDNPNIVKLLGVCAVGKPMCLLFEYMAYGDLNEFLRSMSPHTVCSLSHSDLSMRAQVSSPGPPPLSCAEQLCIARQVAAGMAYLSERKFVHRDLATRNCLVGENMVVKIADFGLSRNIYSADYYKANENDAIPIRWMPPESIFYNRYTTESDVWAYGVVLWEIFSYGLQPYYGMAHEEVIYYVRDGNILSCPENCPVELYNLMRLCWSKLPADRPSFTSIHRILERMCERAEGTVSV
T11 sequence (P09619 33-1106): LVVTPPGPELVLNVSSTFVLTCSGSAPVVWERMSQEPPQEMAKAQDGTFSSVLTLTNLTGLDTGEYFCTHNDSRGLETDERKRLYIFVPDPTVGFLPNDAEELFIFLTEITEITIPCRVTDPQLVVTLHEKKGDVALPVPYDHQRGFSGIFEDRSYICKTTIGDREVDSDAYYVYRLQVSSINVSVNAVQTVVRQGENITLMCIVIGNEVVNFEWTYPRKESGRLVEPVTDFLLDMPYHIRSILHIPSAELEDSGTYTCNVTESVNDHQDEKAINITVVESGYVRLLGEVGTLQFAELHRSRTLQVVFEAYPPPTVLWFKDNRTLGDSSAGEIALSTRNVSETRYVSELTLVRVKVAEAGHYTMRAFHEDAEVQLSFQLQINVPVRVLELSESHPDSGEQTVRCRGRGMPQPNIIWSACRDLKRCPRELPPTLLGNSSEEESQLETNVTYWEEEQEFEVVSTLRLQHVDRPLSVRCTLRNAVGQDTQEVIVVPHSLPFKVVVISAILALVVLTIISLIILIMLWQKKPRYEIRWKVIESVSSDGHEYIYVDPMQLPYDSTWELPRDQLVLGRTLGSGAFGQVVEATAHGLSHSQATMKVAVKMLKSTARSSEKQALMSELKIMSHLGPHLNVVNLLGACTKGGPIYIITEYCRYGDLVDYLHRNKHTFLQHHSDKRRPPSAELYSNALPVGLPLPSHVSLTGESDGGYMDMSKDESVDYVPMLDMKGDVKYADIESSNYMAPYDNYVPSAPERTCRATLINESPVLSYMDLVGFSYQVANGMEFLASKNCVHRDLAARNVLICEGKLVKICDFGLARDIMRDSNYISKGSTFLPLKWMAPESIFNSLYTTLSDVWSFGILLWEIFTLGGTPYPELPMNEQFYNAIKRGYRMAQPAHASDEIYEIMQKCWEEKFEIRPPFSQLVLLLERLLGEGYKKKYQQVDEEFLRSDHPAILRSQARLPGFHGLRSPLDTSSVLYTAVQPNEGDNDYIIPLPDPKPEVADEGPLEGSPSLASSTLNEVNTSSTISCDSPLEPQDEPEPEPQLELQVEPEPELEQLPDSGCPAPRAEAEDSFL
T8 sequence (Q02763 23-1124): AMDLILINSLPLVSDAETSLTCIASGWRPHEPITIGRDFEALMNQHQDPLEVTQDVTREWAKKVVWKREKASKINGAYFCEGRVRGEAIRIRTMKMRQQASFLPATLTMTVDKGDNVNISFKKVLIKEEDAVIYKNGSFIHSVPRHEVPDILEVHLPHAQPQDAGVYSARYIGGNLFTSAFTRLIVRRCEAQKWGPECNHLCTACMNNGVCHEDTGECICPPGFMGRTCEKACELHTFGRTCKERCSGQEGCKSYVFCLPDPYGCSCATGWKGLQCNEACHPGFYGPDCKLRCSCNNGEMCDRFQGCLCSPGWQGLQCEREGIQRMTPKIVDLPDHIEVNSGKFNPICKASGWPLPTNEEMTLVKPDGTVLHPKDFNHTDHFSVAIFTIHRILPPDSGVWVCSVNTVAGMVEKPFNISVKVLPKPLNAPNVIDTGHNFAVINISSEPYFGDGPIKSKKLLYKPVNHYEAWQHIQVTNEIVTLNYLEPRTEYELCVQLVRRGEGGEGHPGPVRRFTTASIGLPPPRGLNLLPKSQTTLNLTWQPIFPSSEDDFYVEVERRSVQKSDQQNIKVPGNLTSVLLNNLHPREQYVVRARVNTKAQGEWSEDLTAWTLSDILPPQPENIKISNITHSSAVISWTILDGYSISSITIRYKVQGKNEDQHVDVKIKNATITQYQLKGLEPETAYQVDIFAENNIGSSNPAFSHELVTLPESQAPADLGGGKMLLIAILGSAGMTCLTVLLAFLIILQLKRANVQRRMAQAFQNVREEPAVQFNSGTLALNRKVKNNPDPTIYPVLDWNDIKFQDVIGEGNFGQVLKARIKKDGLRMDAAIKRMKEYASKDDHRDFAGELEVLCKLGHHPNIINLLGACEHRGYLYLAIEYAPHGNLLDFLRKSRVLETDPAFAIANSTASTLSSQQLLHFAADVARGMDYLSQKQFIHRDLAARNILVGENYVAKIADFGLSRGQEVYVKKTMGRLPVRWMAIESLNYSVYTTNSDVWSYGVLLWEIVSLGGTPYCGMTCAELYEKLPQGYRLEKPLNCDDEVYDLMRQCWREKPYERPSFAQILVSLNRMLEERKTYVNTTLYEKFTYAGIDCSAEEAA
T7 sequence (P06213 28-1382): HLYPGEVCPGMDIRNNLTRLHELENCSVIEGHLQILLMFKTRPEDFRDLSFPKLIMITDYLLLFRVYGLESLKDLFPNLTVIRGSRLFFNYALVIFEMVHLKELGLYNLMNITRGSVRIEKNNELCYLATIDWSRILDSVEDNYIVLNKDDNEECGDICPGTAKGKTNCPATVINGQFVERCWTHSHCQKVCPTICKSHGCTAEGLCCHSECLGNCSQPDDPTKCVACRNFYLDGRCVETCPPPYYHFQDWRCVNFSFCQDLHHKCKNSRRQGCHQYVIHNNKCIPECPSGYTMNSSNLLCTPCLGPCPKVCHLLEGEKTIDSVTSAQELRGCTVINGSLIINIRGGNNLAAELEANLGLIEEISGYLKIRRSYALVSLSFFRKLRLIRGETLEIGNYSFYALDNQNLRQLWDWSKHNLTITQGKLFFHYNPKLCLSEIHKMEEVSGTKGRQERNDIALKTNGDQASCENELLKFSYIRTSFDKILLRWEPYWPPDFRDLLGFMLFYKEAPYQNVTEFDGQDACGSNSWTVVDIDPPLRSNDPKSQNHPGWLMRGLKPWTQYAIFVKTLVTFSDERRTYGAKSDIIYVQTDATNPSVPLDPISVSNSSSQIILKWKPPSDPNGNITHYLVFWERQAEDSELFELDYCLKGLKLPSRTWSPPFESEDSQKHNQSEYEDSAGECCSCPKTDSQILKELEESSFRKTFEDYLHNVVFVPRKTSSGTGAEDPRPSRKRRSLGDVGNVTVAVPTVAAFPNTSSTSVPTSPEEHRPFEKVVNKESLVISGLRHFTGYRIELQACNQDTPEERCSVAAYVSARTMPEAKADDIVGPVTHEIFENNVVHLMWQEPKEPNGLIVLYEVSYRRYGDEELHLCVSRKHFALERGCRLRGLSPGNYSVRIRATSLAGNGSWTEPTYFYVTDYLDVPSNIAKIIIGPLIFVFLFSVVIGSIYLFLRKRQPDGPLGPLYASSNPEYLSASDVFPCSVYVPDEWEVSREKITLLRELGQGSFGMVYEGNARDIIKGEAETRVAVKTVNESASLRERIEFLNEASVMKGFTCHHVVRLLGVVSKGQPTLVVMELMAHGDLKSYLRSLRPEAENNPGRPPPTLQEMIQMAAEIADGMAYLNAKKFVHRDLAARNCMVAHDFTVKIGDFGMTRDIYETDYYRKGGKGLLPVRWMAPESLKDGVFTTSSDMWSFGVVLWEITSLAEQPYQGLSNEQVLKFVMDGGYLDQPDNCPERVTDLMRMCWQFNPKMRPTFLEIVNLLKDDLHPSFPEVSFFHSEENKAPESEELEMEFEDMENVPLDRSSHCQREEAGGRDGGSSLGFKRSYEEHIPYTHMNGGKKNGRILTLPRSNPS
T6 sequence (P49841 whole entry): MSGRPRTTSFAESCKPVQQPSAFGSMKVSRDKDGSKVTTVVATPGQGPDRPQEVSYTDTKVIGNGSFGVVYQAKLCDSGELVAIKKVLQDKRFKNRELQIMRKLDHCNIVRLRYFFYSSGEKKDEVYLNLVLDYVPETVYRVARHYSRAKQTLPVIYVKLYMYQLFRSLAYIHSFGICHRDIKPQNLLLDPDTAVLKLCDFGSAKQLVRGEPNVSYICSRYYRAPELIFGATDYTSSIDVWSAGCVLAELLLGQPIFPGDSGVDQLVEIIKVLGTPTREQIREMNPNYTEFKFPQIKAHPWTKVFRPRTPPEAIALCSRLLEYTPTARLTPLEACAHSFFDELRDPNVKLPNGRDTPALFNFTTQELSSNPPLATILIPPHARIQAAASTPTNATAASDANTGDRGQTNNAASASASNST

With `COc1cc2nccc(Oc3ccc(NC(=O)NC4CC4)c(Cl)c3)c2cc1C(N)=O` [Lenvatinib, Lenvatinib mesilate] the IC50 (HTC/C3 cells) was 28 µM, the IC50 (IRAK4) was over 10 µM and the IC50 (HER2) was over 10 µM. For the same molecule, the IC50 (FAK) was over 10 µM, the IC50 (FGFR4) was 0.043 µM and the IC50 (SYK) was 8.7 µM. For the same molecule, the IC50 (GSK3β) was over 10 µM, the IC50 (INSR) was over 10 µM and the IC50 (TIE2) was 2.5 µM. The IC50 (MUSK) was over 10 µM, the IC50 (LCK) was 0.13 µM and the IC50 (PDGFRβ) was 0.16 µM. The IC50 (RO82-W-1 cells) was 3.8 µM, the IC50 (IKKb) was over 10 µM and the MVD [1] was “decreased significantly”. For the same molecule, the MVD [2] was “did not decrease the MVDs”, the MVD ([3]; 10 mg/kg) was “significantly decreased in 4 of the 5 DTC xenografts” and the MVD ([3]; 100 mg/kg, all of the 5) was “significantly decreased”. It also gave an IC50 (CDK6) of over 10 µM.
